Patent publication US20090247579A1, “2-[3H-THIAZOL-2-YLIDINEMETHYL]PYRIDINES AND RELATED COMPOUNDS AND THEIR USE” (CANCER RESEARCH TECHNOLOGY LIMITED, priority 2006, published 2009)

Columns and labels:
[1] = system: A2780; assay: Modified MTT assay, A2780 (parental, MMR proficient); assay type: cell-based, human; conditions: Homo sapiens, A2780, 24 hour drug exposure
Experimental: (§1) Relative drug sensitivities (Resistance Factor) and IC50 values were determined by a modified MTT assay (see, e.g., Mosmann, 1983; Plumb et al., 1989), as described below: • (1) Trypsinise a sub-confluent monolayer culture and collect cells in growth medium containing serum. Centrifuge the suspension (200 g, 5 minutes) to pellet cells, re-suspend in growth medium, and count cells. Dilute cells to a density of 5×10^3 cells/mL allowing 60 mL of cell suspension for 3 microtitre plates. Transfer cell suspension to a 10 cm petri dish, and with a multichannel pipette add 200 μL to each well of the central 10 columns of a flat bottomed 96-well plate (80 wells per plate) starting with column 2 and ending with column 11. Add 200 μL of growth medium to the 8 wells in columns 1 and 12. Put the plates in a plastic box and incubate in a humidified atmosphere at 37° C. for 2-3 days so that cells are in the exponential phase of growth for drug addition. • (2) Prepare a serial 5-fold dilution of the cytotoxic drug in growth medium to give 8 concentrations. Pipette 6 mL of growth medium in to each of 7 universal containers (30 mL). Prepare 10 mL of the highest concentration of the drug and transfer 1.5 mL of this solution to the first universal container. Mix and then transfer 1.5 mL to the next universal container. Continue until the seventh universal container is reached. The concentrations should be chosen so that the highest concentration kills most of the cells and the lowest kills none of the cells. Normally, three plates are used for each drug to give triplicate determinations within one experiment. • (3) The medium is removed from all the wells in columns 2 to 11. This can be achieved with a hypodermic needle attached to a suction line. Cells in the 8 wells in columns 2 and 11 are fed with 200 μL of fresh growth medium. The drug solutions are transferred to 10 cm petri dishes and 200 μL added to all 8 wells of a column. For ease of analysis arrange the drug solutions in order so that the highest is in column 3 down to the lowest in column 10. Plates are returned to the plastic box and incubated for 24 hours. • (4) At the end of the drug exposure period, the medium is removed from all wells containing cells and the cells are fed with 200 μL of fresh medium. • (5) The plates are fed daily for two more days. • (6) The plates are fed with 200 μL of fresh medium and 50 μL of the MTT solution (5 mg/mL in PBS) is added to all wells in columns 1 to 11. Plates are wrapped in aluminium foil and incubated for 4 hours in a humidified atmosphere at 37° C. • (7) The medium and MTT are then removed from the wells and the purple MTT-formazan crystals dissolved by addition of 200 μL of DMSO to all wells in columns 1 to 11. Glycine buffer is added (25 μL per well) to all wells containing DMSO. • (8) Absorbance is recorded at 570 nm with the wells in column 1, which contained medium and MTT but no cells used as a blank. • (9) A graph is plotted of absorbance (y-axis) against drug concentration (x-axis). The mean absorbance reading from the wells in columns 2 and 11 is used as the control absorbance and the IC50 concentration is determined as the drug concentration required to reduce the absorbance to half that of the control. IC10 or IC90 values can be determined in the same manner.
(§2) A2780/cp70 and A2780/mcp1 have lost expression of MLH1, have lost MMR activity, and have microsatellite instability compared to A2780. The CpG island at the MLH1 gene is methylated in A2780/cp70 and A2780/mcp1, but not A2780.
(§3) IC50 values (μM) for A2780, A2780/cp70, and A2780/mcp1 and Resistance Factors (RF) (the fold difference in resistance from parental A2780) were determined based on the MTT assay described above for several compounds of the present invention (including, e.g., MMR201).

[2] = system: A2780/cp70; assay: Modified MTT assay, A2780/cp70 (cisplatin resistant, MMR deficient); assay type: cell-based, human; conditions: 24 hour drug exposure; for IC50: Homo sapiens, A2780/CP70, MTT; for A2780/cp70 RF (Resistance Factor): fold difference in resistance from parental A2780
Experimental: as §1, §2, §3

[3] = system: A2780/mcp1; assay: Modified MTT assay, A2780/mcp1 (cisplatin resistant, MMR deficient); assay type: cell-based, human; conditions: 24 hour drug exposure; for IC50: Homo sapiens, A2780/mcp1, MTT; for A2780/mcp1 RF (Resistance Factor): fold difference in resistance from parental A2780
Experimental: as §1, §2, §3

[4] = system: A1 (MLH1+ve, MMR proficient); assay: Modified MTT assay, A1 line (A2780/cp70 + chromosome 3, MLH1 +ve); assay type: cell-based, human; conditions: Homo sapiens, A2780/CP70, read-out: A1 or E1 MLH1 +ve MMR proficient IC50
Experimental: as §1
(§4) A1, E1, and A2 are derived by transfer of human chromosome 3 into A2780/cp70. MLH1 is located on chromosome 3.
(§5) IC50 values (μM) for A1 (MLH1+ve, MMR proficient) or E1 (MLH1+ve, MMR proficient) and A2 (MLH1−ve, MMR deficient) lines and Resistance Factors (RF) (the fold difference in resistance between the A2 line, MMR deficient, and the A1 line, MMR proficient) were determined based on the MTT assay described above for several compounds of the present invention (including, e.g., MMR201). Compounds showing increased activity against the MLH1 deficient A2 line compared to the MLH1 proficient A1 or E1 line have RF values less than 1.

[5] = system: A2 (MLH1−ve, MMR deficient); assay: Modified MTT assay, A2 line (A2780/cp70 + chromosome 3, MLH1 -ve); assay type: cell-based, human; conditions: for IC50: Homo sapiens, A2780/CP70, A2 line
Experimental: as §1, §4, §5

[6] = system: E1 (MLH1+ve, MMR proficient); assay: Modified MTT assay, E1 line (A2780/cp70 + chromosome 3, MLH1 +ve); assay type: cell-based; conditions: Homo sapiens, read-out: A1 or E1 MLH1 +ve MMR proficient IC50
Experimental: Relative drug sensitivities (Resistance Factor) and IC50 values were determined by a modified MTT assay (see, e.g., Mosmann, 1983; Plumb et al., 1989), as described below: • (1) Trypsinise a sub-confluent monolayer culture and collect cells in growth medium containing serum. Centrifuge the suspension (200 g, 5 minutes) to pellet cells, re-suspend in growth medium, and count cells. Dilute cells to a density of 5×10^3 cells/mL allowing 60 mL of cell suspension for 3 microtitre plates. Transfer cell suspension to a 10 cm petri dish, and with a multichannel pipette add 200 μL to each well of the central 10 columns of a flat bottomed 96-well plate (80 wells per plate) starting with column 2 and ending with column 11. Add 200 μL of growth medium to the 8 wells in columns 1 and 12. […] Glycine buffer is added (25 μL per well) to all wells containing DMSO. • (8) Absorbance is recorded at 570 nm with the wells in column 1, which contained medium and MTT but no cells used as a blank. • (9) A graph is plotted of absorbance (y-axis) against drug concentration (x-axis). The mean absorbance reading from the wells in columns 2 and 11 is used as the control absorbance and the IC50 concentration is determined as the drug concentration required to reduce the absorbance to half that of the control. IC10 or IC90 values can be determined in the same manner. […]

[7] = fold difference in resistance between A2 (MMR deficient) and A1 (MMR proficient)

SMILES	IC50 [1] [nM]	IC50 [2] [nM]	A2780/cp70 RF (Resistance Factor) [2]	IC50 [3] [nM]	A2780/mcp1 RF (Resistance Factor) [3]	IC50 [4] [nM]	IC50 [5] [nM]	RF (Resistance Factor) [5, 7]	IC50 [6] [nM]	RF (Resistance Factor) ([5]; A2 (MMR deficient) versus E1 (MMR proficient))
CC[n+]1c(/C=C2\Sc3oc4ccccc4c3N2C)ccc2ccccc21.[I-] [MMR211]	69 ± 7	40 ± 4	0.58	38 ± 6	0.55	144 ± 9	27 ± 3	0.19	–	–
CC[n+]1c(/C=C2\SC=CN2C)ccc2ccccc21.[I-] [MMR212]	1670 ± 370	435 ± 22	0.26	481 ± 48	0.29	4100 ± 450	681 ± 76	0.17	–	–
CC[n+]1c(/C=C2\SC=C(C)N2C)ccc2ccccc21.[I-] [MMR213]	1230 ± 51	325 ± 44	0.26	358 ± 103	0.29	2550 ± 180	530 ± 18	0.21	–	–
CC[n+]1ccccc1/C=C1\SC=CN1C.[I-] [MMR302]	13600 ± 1550	7100 ± 370	0.52	12900 ± 1000	0.95	2830 ± 460	4150 ± 800	1.5	–	–
CC[n+]1ccccc1/C=C1\SC=C(C)N1C.[I-] [MMR304]	64500 ± 3910	18000 ± 1300	0.28	35600 ± 1960	0.55	54200 ± 10800	16100 ± 2540	0.30	–	–
CC[n+]1ccccc1/C=C1\Sc2oc3ccccc3c2N1C.[I-] [MMR307]	752 ± 73	932 ± 95	1.24	716 ± 41	0.95	–	648 ± 85	–	937 ± 66	0.69
